In patent US20250099482A1, “TIP60 NEURO-EPIGENETIC MODULATORS” (Drexel University, priority 2023, published 2025):
pKd: −log10 of the molar value. Entries after “also recorded” stand apart in the source; their conditions may differ.

What was measured:
[1] = test system: Drosophila Tip60 knockdown model; assay: In vivo larval locomotor speed assay in Tip60-RNAi knockdown model; details: Tip60-RNAi larvae, compound in fly food, vs DMSO vehicle; for rescue of locomotor ability (larval speed): 10 nM to 100 μM
GST-Tip60 protein = molecular target: T1, GST-Tip60 protein (Homo sapiens, UniProt Q92993); assay: In vitro surface plasma resonance (SPR) Tip60-compound binding; details: for Corrected Response: DMSO corrected
T1 construct: purchased Abcam ab2686960
T1 sequence (Q92993 whole entry): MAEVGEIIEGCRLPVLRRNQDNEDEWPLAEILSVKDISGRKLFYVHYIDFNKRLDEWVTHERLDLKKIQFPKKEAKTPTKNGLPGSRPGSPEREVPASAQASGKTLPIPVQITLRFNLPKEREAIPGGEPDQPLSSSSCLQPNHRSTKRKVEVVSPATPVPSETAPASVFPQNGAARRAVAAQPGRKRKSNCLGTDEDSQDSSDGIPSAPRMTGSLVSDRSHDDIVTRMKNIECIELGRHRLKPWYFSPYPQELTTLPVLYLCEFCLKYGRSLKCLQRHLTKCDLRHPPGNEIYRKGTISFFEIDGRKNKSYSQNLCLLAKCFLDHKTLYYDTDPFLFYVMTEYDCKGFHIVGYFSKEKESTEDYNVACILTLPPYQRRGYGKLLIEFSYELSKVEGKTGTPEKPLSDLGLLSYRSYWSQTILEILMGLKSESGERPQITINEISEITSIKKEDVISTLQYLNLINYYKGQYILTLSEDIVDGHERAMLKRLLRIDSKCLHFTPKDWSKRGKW
Description: SPR protein-compound binding interactions were analyzed on Biacore 3000 biosensor (Global Cytiva Lifesciences) at 25° C. PBS-P (10 mM Phosphate, 150 mM NaCl, pH 7.4, 0.005% P-20) was used as the running buffer and a HAT-optimized binding buffer (50 mM HEPES, pH 7.4, 500 mM NaCl, 0.05% [v/v] Tween 20, 5 mM DTT, 10% [w/v] glycerol, 2% [v/v] DMSO) was used. A CM5 sensor chip was docked and derivatized by amine coupling to capture anti-GST antibody using freshly prepared 1:1 50 mM NHS (N-hydroxysuccinamide): 200 mM EDC (1-ethyl-3-(3-(dimethylamino) propyl) carbodiimide) followed by immobilization of GST-Tip60 protein (Abcam: ab2686960). Direct binding was determined by injecting ligands in duplicates at concentrations spanning 0.0078 μM to 50 μM with running buffer injections in between. DMSO corrections were performed as described previously. The corrected responses were transformed into % bound sites and plotted against the compound concentration. The concentration of Tip60 on the surface was estimated using [Tip60]=response (captured RU)/100*MW. To plot the % bound isotherm as a function of concentration, it is assumed that binding is 1:1 and the following equation is used: % A bound to B is 100AB/Bt=[Kd+At+Bt-SQRT((Kd+At+Bt)2−4*At*Bt)]/(2*Bt) where A=C and B=Tip60.

Tip60 = molecular target: T2, Tip60 (Homo sapiens, UniProt Q92993); assay: In vitro histone acetylation activity assay (Tip60); format: biochemical; details: for effect on Tip60's HAT activity (Histone H4 acetylation, fluorescence): 20 μM compound, vs Tip60+DMSO
T2 construct: purchased Active Motif 81975
T2 sequence (Q92993 whole entry): as above
Description: HAT assays were performed according to manufacturer's instructions in HAT Assay Kit (Active Motif 56100). Briefly, 375 ng Tip60 protein (Active motif: 81975) was incubated with 50 μM Histone H4 peptide, 50 μM Acetyl-CoA and indicated drug concentrations for 30 minutes at room temperature. After stopping the reaction and developing free sulfhydryl groups, […] was recorded at excitation 360-390 nm and emission 460-490 nm using Glomax fluorescence microplate reader. Specific enzyme activity (pmol/min/μg) was calculated by 1. Subtracting background fluorescence from that of assay samples to obtain arbitrary fluorescence units (AFU); and (2) Dividing the difference by the incubation time to obtain AFU/minute. 3. Dividing the AFU/minute by the slope of standard curve in AFU/pmol to obtain the rate in pmol/minute. 4. Dividing pmol/min by the amount of enzyme used to obtain final readings in pmol/minute/μg.

[2] = test system: Drosophila Alzheimer's disease model (APP); assay: Larval line crossing assay in APP Alzheimer's disease model; format: in vivo; details: 3rd instar APP larvae, compound in fly food, range of concentrations
[3] = test system: Drosophila Tip60 knockdown model; assay: Larval line crossing / reaching the wall assay in Tip60-RNAi knockdown model; format: in vivo; details: 3rd instar Tip60-RNAi larvae, compound in fly food

Compound: CCOc1ccccc1C(=O)Nc1ccc(Cl)c(C(F)(F)F)c1 [CTB, N-(4-chloro-3-(trifluoromethyl)phenyl)-2-ethoxybenzamide]
- rescue of locomotor ability (larval speed) [1]: significant rescue for locomotor ability
- % Bound sites (GST-Tip60 protein; 0.0078 μM): 0.05241%
- Subtracted response (GST-Tip60 protein; 0.0078 μM): 8.34
- Corrected Response (GST-Tip60 protein; 0.0078 μM): 0.1326
- % Bound sites (GST-Tip60 protein; 0.023 μM): 0.04999%
- Subtracted response (GST-Tip60 protein; 0.023 μM): 7.955
- Corrected Response (GST-Tip60 protein; 0.023 μM): 0.1265
- % Bound sites (GST-Tip60 protein; 0.07 μM): 0.04921%
- Subtracted response (GST-Tip60 protein; 0.07 μM): 7.83
- Corrected Response (GST-Tip60 protein; 0.07 μM): 0.1245
- % Bound sites (GST-Tip60 protein; 0.21 μM): 0.04955%
- Subtracted response (GST-Tip60 protein; 0.21 μM): 7.885
- Corrected Response (GST-Tip60 protein; 0.21 μM): 0.1254
- % Bound sites (GST-Tip60 protein; 0.63 μM): 0.0526%
- Subtracted response (GST-Tip60 protein; 0.63 μM): 8.37
- Corrected Response (GST-Tip60 protein; 0.63 μM): 0.1331
- % Bound sites (GST-Tip60 protein; 1.85 μM): 0.05923%
- Subtracted response (GST-Tip60 protein; 1.85 μM): 9.425
- Corrected Response (GST-Tip60 protein; 1.85 μM): 0.1499
- % Bound sites (GST-Tip60 protein; 5.56 μM): 0.07928%
- Subtracted response (GST-Tip60 protein; 5.56 μM): 12.615
- Corrected Response (GST-Tip60 protein; 5.56 μM): 0.2006
- % Bound sites (GST-Tip60 protein; 17 μM): 0.1511%
- Subtracted response (GST-Tip60 protein; 17 μM): 24.05
- Corrected Response (GST-Tip60 protein; 17 μM): 0.3824
- % Bound sites (GST-Tip60 protein; 50 μM): 0.4056%
- Subtracted response (GST-Tip60 protein; 50 μM): 64.54
- Corrected Response (GST-Tip60 protein; 50 μM): 1.026
- pKd (GST-Tip60 protein; SPR, 25° C., read-out: KD (dissociation constant)): 4.54
- effect on Tip60's HAT activity (Tip60; CTB, low micromolar concentrations): directly enhance Tip60's HAT activity

Compound: CCCCCCCCCCCCCCCc1cccc(OCC)c1C(=O)Nc1ccc(Cl)c(C(F)(F)F)c1 [CTPB, N-(4-chloro-3-(trifluoromethyl)phenyl)-2-ethoxy-6-pentadecylbenzamide]
- rescue of locomotor ability (larval speed) [1]: significant rescue for locomotor ability
- Subtracted response (GST-Tip60 protein; 0.0078 μM): 8.525
- Corrected Response (GST-Tip60 protein; 0.0078 μM): 0.1381
- Subtracted response (GST-Tip60 protein; 0.023 μM): 8.62
- Corrected Response (GST-Tip60 protein; 0.023 μM): 0.1396
- Subtracted response (GST-Tip60 protein; 0.07 μM): 8.545
- Corrected Response (GST-Tip60 protein; 0.07 μM): 0.1384
- Subtracted response (GST-Tip60 protein; 0.21 μM): 8.575
- Corrected Response (GST-Tip60 protein; 0.21 μM): 0.1389
- Subtracted response (GST-Tip60 protein; 0.63 μM): 8.99
- Corrected Response (GST-Tip60 protein; 0.63 μM): 0.1456
- Subtracted response (GST-Tip60 protein; 1.85 μM): 10.085
- Corrected Response (GST-Tip60 protein; 1.85 μM): 0.1634
- Subtracted response (GST-Tip60 protein; 5.56 μM): 13.355
- Corrected Response (GST-Tip60 protein; 5.56 μM): 0.2164
- Subtracted response (GST-Tip60 protein; 17 μM): 25.005
- Corrected Response (GST-Tip60 protein; 17 μM): 0.4051
- Subtracted response (GST-Tip60 protein; 50 μM): 66.335
- Corrected Response (GST-Tip60 protein; 50 μM): 1.075

Compound: CCOc1ccccc1C(=O)Nc1ccc(Cl)c(C(F)(F)F)c1 [Compound C1, N-(4-chloro-3-(trifluoromethyl)phenyl)-2-ethoxybenzamide]
- rescue of locomotor defects (larval speed), performance as compared to CTB [1]: low-performing compounds

Compound: O=C(Nc1ccc(Cl)c(C(F)(F)F)c1)c1ccccc1OC[C@@H]1CCCO1 [Compound C2, (S)-N-(4-chloro-3-(trifluoromethyl)phenyl)-2-((tetrahydrofuran-2-yl)methoxy)benzamide]
- rescue of locomotor defects (larval speed), performance as compared to CTB [1]: highest performers

Compound: O=C(Nc1ccc(Cl)c(C(F)(F)F)c1)c1ccccc1OC[C@H]1CCCO1 [Compound C3, (R)-N-(4-chloro-3-(trifluoromethyl)phenyl)-2-((tetrahydrofuran-2-yl)methoxy)benzamide]
- rescue of locomotor defects (larval speed), performance as compared to CTB [1]: low-performing compounds

Compound: O=C(Nc1ccc(Cl)c(C(F)(F)F)c1)c1ccccc1OCC(=O)N1CCOCC1 [Compound C4, N-(4-chloro-3-(trifluoromethyl)phenyl)-2-(2-morpholino-2-oxoethoxy)benzamide]
- rescue of locomotor defects (larval speed), performance as compared to CTB [1]: did not show an effect even at high concentrations

Compound: CCOc1cccc(OCCN(C)C)c1C(=O)Nc1ccc(Cl)c(C(F)(F)F)c1 [Compound C5, N-(4-chloro-3-(trifluoromethyl)phenyl)-2-(2-(dimethylamino)ethoxy)-6-ethoxybenzamide]
- rescue of locomotor defects (larval speed), performance as compared to CTB [1]: highest performers

Compound: CC(C)Oc1ccccc1C(=O)Nc1ccc(Cl)c(C(F)(F)F)c1 [Compound C6, N-(4-chloro-3-(trifluoromethyl)phenyl)-2-isopropoxybenzamide]
- rescue of locomotor defects (larval speed), performance as compared to CTB [1]: low-performing compounds

Compound: O=C(Nc1ccc(Cl)c(C(F)(F)F)c1)c1ccccc1OC[C@@H]1CCCS1(=O)=O [Compound C7, (S)-N-(4-chloro-3-(trifluoromethyl)phenyl)-2-((1,1-dioxidotetrahydrothiophen-2-yl)methoxy)benzamide]
- rescue of locomotor defects (larval speed), performance as compared to CTB [1]: low-performing compounds

Compound: O=C(Nc1ccc(Cl)c(C(F)(F)F)c1)c1ccccc1OC[C@H]1CCCS1(=O)=O [Compound C8, (R)-N-(4-chloro-3-(trifluoromethyl)phenyl)-2-((1,1-dioxidotetrahydrothiophen-2-yl)methoxy)benzamide]
- rescue of locomotor defects (larval speed), performance as compared to CTB [1]: highest performers

Compound: CCOCC[C@H](O)COc1ccccc1C(=O)Nc1ccc(Cl)c(C(F)(F)F)c1 [Compound C9, (S)-N-(4-chloro-3-(trifluoromethyl)phenyl)-2-(4-ethoxy-2-hydroxybutoxy)benzamide]
- rescue of locomotor defects (larval speed), performance as compared to CTB [1]: low-performing compounds

Compound: CCOCC[C@@H](O)COc1ccccc1C(=O)Nc1ccc(Cl)c(C(F)(F)F)c1 [Compound C10, (R)-N-(4-chloro-3-(trifluoromethyl)phenyl)-2-(4-ethoxy-2-hydroxybutoxy)benzamide]
- rescue of locomotor defects (larval speed), performance as compared to CTB [1]: low-performing compounds

Compound: CCOc1ccccc1C(=O)Nc1cnn(Cc2ccc(C)cc2)c1 [Compound P6, 2-ethoxy-N-(1-(4-methylbenzyl)-1H-pyrazol-4-yl)benzamide]
- rescue of AD associated locomotion defects (line crossing, reaching wall) [2]: high rescue overall, its action was inconsistent
- rescue of Tip60 knockdown induced locomotion deficits (line crossing in 30 seconds) [3]: rescue locomotor speed defect; also recorded: inconsistent rescue results
- effect on Tip60's HAT activity (Histone H4 acetylation, fluorescence) (Tip60): enhanced Tip60's HAT activity; also recorded: highest level of Tip60 HAT activation

Compound: COc1ccc(NCc2c(OCc3ccc(F)cc3)ccc3ccccc23)cc1Cl [Compound P9, 3-chloro-N-((2-((4-fluorobenzyl)oxy)naphthalen-1-yl)methyl)-4-methoxyaniline]
- effect on Tip60's HAT activity (Histone H4 acetylation, fluorescence) (Tip60): enhanced Tip60's HAT activity

Compound: O=C(NCc1ccccc1Cn1cncn1)c1cn(Cc2ccccc2)c2ccccc12 [Compound P11, N-(2-((1H-1,2,4-triazol-1-yl)methyl)benzyl)-1-benzyl-1H-indole-3-carboxamide]
- effect on Tip60's HAT activity (Histone H4 acetylation, fluorescence) (Tip60): enhanced Tip60's HAT activity

Compound: Cc1cc(-c2ccccc2)cc(C(=O)NNS(=O)(=O)c2ccccc2)c1F [WM8014, N′-(4-fluoro-5-methyl-[1,1′-bipheny1]-3-carbonyl)benzenesulfonohydrazide]
- Subtracted response (GST-Tip60 protein; 0.0078 μM): 8.58
- Corrected Response (GST-Tip60 protein; 0.0078 μM): 0.127
- Subtracted response (GST-Tip60 protein; 0.023 μM): 7.78
- Corrected Response (GST-Tip60 protein; 0.023 μM): 0.1151
- Subtracted response (GST-Tip60 protein; 0.07 μM): 7.42
- Corrected Response (GST-Tip60 protein; 0.07 μM): 0.1098
- Subtracted response (GST-Tip60 protein; 0.21 μM): 7.24
- Corrected Response (GST-Tip60 protein; 0.21 μM): 0.1072
- Subtracted response (GST-Tip60 protein; 0.63 μM): 7.51
- Corrected Response (GST-Tip60 protein; 0.63 μM): 0.1111
- Subtracted response (GST-Tip60 protein; 1.85 μM): 8.17
- Corrected Response (GST-Tip60 protein; 1.85 μM): 0.1209
- Subtracted response (GST-Tip60 protein; 5.56 μM): 11.34
- Corrected Response (GST-Tip60 protein; 5.56 μM): 0.1678
- Subtracted response (GST-Tip60 protein; 17 μM): 22.255
- Corrected Response (GST-Tip60 protein; 17 μM): 0.3294
- Subtracted response (GST-Tip60 protein; 50 μM): 61.705
- Corrected Response (GST-Tip60 protein; 50 μM): 0.9132
